The source made the active and inactive calls. No cut-off for these calls is given here.
Assays:
ECa-109 cell line [1] = experiment: Synergistic anticancer activity in vincristine resistant human Eca-109 cells assessed as combination index at 10:1 compound to vincristine ratio measured after 48 hrs; assay type: functional
ECa-109 cell line [2] = experiment: Induction of apoptosis in vincristine resistant human Eca-109 cells assessed as early apoptotic cells at 5 uM incubated for 24 hrs by AnnexinV-FITC/PI staining based flow cytometric analysis (reference value: 2.30%); assay type: functional
[3] = Inhibition of clone formation in vincristine resistant human Eca-109 cells at 2 uM incubated for 48 hrs by crystal violet staining based analysis; assay type: functional
[4] = Terminal elimination half life in Sprague-Dawley rat at 3 mg/kg, iv measured upto 24 hrs by UPLC/MS/MS analysis; assay type: ADME, organism-based; conditions: in vivo, read-out: LambdaZ (converted)
[5] = Hepatotoxicity in nude mouse at 30 mg/kg, IG administered every two days for 21 days in presence of vincristine by H and E staining based analysis; assay type: toxicity, organism-based; conditions: in vivo, po, 504 h, time 21 day
[6] = Oral bioavailability in Sprague-Dawley rat at 30 mg/kg measured upto 24 hrs by UPLC/MS/MS analysis; assay type: ADME, organism-based; conditions: in vivo
ECa-109 cell line [7] = experiment: Induction of apoptosis in vincristine resistant human Eca-109 cells assessed as early apoptotic cells at 2.5 uM incubated for 24 hrs by AnnexinV-FITC/PI staining based flow cytometric analysis (reference value: 2.30%); assay type: functional
ECa-109 cell line [8] = experiment: Induction of apoptosis in vincristine resistant human Eca-109 cells assessed as viable cells at 5 uM incubated for 24 hrs in presence of vincristine by AnnexinV-FITC/PI staining based flow cytometric analysis (reference value: 89.2%); assay type: functional; conditions: read-out: Activity
[9] = Cytotoxicity against HEK293T cells incubated for 48 hrs by CCK-8 method; assay type: toxicity, cell-based, HEK-293T; conditions: human
ECa-109 cell line [10] = experiment: Reversal of vincristine-resistance in human Eca-109 cells assessed as fold reversal by measuring cell viability at 5 uM incubated for 48 hrs by CCK-8 method relative to vincristine alone; assay type: functional
ECa-109 cell line [11] = experiment: Induction of apoptosis in vincristine resistant human Eca-109 cells assessed as late apoptotic cells at 2.5 uM incubated for 24 hrs by AnnexinV-FITC/PI staining based flow cytometric analysis (reference value: 7.19%); assay type: functional
[12] = Apparent oral clearance in Sprague-Dawley rat at 3 mg/kg, iv measured upto 24 hrs by UPLC/MS/MS analysis; assay type: ADME, organism-based; conditions: in vivo
ECa-109 cell line [13] = experiment: Reversal of VCR -resistance in human Eca-109 cells assessed as cell viability at 1 uM incubated for 48 hrs by CCK-8 method (reference value: 6830.0+/-537.0 nM); assay type: functional, cell-based; conditions: ECa-109, 48 h
[14] = Tmax in Sprague-Dawley rat at 30 mg/kg, po measured upto 24 hrs by UPLC/MS/MS analysis; assay type: ADME, organism-based; conditions: in vivo
[15] = target: T1, ATP-dependent translocase ABCB1 (Homo sapiens, UniProt P08183); experiment: Inhibition of P-gp efflux in vincristine resistant human Eca-109 cells assessed as effect on accumulation of rhodamine123; assay type: cell-based
T1 sequence (P08183 whole entry): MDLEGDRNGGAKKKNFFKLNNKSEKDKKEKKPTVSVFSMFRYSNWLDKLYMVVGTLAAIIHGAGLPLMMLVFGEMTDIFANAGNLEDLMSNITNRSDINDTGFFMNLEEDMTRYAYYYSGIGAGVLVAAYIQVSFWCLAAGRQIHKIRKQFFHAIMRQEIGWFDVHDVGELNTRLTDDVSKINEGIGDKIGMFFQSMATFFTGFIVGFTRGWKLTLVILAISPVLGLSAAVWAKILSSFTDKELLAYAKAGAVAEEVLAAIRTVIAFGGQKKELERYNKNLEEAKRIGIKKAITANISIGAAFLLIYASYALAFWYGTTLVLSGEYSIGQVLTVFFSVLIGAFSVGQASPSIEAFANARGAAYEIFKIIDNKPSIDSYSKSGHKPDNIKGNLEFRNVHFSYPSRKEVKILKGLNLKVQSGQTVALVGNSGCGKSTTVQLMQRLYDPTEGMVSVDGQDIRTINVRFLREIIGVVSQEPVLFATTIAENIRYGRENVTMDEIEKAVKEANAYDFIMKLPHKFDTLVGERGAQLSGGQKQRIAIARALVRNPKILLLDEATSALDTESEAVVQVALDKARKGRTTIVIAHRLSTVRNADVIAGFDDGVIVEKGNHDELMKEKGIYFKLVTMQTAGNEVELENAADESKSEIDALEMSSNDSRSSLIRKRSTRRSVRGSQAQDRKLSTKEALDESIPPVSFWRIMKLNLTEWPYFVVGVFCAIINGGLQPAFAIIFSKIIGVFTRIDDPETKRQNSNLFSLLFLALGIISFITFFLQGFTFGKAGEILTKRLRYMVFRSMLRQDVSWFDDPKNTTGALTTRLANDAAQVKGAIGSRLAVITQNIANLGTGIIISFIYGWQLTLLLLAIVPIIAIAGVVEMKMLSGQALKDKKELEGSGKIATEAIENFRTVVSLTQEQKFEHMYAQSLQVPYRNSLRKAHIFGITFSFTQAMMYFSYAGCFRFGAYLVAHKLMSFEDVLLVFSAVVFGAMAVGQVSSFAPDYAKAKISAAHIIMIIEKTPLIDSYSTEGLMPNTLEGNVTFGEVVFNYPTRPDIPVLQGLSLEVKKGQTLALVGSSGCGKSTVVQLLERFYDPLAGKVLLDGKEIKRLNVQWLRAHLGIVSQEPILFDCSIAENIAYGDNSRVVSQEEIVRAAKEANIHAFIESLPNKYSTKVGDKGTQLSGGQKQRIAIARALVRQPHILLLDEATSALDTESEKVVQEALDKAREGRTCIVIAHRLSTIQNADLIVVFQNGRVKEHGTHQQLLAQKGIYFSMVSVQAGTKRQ

[16] = Toxicity in nude mouse assessed as change in body weight at 30 mg/kg administered every 2 days for 21 days in presence of vincristine; assay type: organism-based; conditions: in vivo, 48 h, time 2 day
ECa-109 cell line [17] = experiment: Reversal of VCR -resistance in human Eca-109 cells assessed as cell viability at 5 uM incubated for 48 hrs by CCK-8 method (reference value: 6830.0+/-537.0 nM); assay type: functional, cell-based; conditions: ECa-109, 48 h
[18] = target: T1, ATP-dependent translocase ABCB1; experiment: Inhibition of P-gp efflux in vincristine resistant human Eca-109 cells assessed as effect on accumulation of doxorubicin; assay type: cell-based
[19] = target: Multidrug resistance-associated protein 1 (Homo sapiens, UniProt P33527); experiment: Binding affinity to MRP1 in vincristine resistant human Eca-109 cells assessed as stabilization of protein at 100 uM incubated for 30 mins by thermal shift assay; assay type: cell-based; conditions: eca-109, 0.5 h
Sequence of Multidrug resistance-associated protein 1 (P33527 whole entry): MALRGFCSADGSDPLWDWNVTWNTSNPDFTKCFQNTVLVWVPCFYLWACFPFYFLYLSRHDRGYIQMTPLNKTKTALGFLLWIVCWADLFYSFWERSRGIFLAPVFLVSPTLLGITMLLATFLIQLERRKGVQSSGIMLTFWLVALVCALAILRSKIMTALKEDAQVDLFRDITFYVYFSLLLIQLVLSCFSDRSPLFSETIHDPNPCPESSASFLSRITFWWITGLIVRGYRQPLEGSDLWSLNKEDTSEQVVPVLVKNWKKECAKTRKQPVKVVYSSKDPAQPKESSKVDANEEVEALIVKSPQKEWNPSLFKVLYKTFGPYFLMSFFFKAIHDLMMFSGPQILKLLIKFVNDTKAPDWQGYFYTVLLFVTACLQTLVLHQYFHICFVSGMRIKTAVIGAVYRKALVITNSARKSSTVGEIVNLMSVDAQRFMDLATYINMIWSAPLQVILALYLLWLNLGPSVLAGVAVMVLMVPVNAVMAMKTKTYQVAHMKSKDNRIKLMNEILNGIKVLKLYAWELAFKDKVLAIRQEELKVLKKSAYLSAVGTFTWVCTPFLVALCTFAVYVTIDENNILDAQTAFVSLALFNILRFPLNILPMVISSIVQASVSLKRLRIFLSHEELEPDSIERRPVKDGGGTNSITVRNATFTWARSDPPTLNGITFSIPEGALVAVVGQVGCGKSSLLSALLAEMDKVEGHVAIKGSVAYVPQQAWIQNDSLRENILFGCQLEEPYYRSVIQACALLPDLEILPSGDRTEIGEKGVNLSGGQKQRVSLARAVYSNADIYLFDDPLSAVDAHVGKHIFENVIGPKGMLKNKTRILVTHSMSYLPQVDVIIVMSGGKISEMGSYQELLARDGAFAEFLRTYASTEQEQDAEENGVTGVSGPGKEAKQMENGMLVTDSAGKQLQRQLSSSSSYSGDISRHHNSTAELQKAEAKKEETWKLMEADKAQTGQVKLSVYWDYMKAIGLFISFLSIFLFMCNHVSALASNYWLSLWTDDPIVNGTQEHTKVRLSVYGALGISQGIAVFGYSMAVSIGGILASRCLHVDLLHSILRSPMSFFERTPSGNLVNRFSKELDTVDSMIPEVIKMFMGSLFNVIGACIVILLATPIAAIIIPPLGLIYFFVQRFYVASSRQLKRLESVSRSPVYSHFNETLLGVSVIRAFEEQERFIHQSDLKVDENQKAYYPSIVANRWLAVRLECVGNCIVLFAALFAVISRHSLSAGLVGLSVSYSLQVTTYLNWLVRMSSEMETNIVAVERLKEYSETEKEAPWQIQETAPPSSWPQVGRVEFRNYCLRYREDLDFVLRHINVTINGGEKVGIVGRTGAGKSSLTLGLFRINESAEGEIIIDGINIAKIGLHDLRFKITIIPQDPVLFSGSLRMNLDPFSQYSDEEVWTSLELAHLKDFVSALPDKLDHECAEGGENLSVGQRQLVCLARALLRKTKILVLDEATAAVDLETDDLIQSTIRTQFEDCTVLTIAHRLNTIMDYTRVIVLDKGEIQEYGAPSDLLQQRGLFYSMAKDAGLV

ECa-109 cell line [20] = experiment: Induction of apoptosis in vincristine resistant human Eca-109 cells assessed as early apoptotic cells at 2.5 uM incubated for 24 hrs in presence of vincristine by AnnexinV-FITC/PI staining based flow cytometric analysis (reference value: 4.43%); assay type: functional
[21] = Cytotoxicity against human GES1 cells incubated for 48 hrs by CCK-8 method; assay type: toxicity, cell-based
ECa-109 cell line [22] = experiment: Reversal of vincristine-resistance in human Eca-109 cells assessed as fold reversal by measuring cell viability at 2.5 uM incubated for 48 hrs by CCK-8 method relative to vincristine alone; assay type: functional
ECa-109 cell line [23] = experiment: Synergistic antitumor activity against in vincristine resistant p-gp overexpressing human Eca-109 cells xenografted in nude mouse assessed as inhibition of tumor proliferation at 30 mg/kg, IG administered every two days for 21 days in presence of vincristine; assay type: functional, organism-based; conditions: time 21.0 day
[24] = MRT (0 to infinity) in Sprague-Dawley rat at 30 mg/kg, po measured upto 24 hrs by UPLC/MS/MS analysis; assay type: ADME, organism-based; conditions: in vivo
[25] = Terminal elimination half life in Sprague-Dawley rat at 30 mg/kg, po measured upto 24 hrs by UPLC/MS/MS analysis; assay type: ADME, organism-based; conditions: in vivo, read-out: LambdaZ (converted)
ECa-109 = experiment: Downregulation of P-gp expression in vincristine resistant human Eca-109 cells at 2.5 to 10 uM incubated for 24 hrs by Western blot analysis; assay type: functional, cell-based; conditions: dose 2.5-10 µM
ECa-109 cell line [26] = experiment: Cytotoxicity against human Eca-109 cells incubated for 48 hrs by CCK-8 method; assay type: functional, cell-based; conditions: ECa-109, 48 h
[27] = target: T1, ATP-dependent translocase ABCB1; experiment: Inhibition of P-gp efflux in vincristine resistant human Eca-109 cells assessed as increase in intracellular accumulation of calcein-AM at 1 to 5 uM incubated for 1 hr by flow cytometry analysis; assay type: cell-based; conditions: eca-109, 1 h, dose 1-5 µM
ECa-109 cell line [28] = experiment: Induction of apoptosis in vincristine resistant human Eca-109 cells assessed as necrotic cells at 2.5 uM incubated for 24 hrs in presence of vincristine by AnnexinV-FITC/PI staining based flow cytometric analysis (reference value: 0.35%); assay type: functional
ECa-109 cell line [29] = experiment: Induction of apoptosis in vincristine resistant human Eca-109 cells assessed as necrotic cells at 1 uM incubated for 24 hrs in presence of vincristine by AnnexinV-FITC/PI staining based flow cytometric analysis (reference value: 0.35%); assay type: functional

k el at 24 h [4]: 4.17e-05 s⁻¹ | bioavailability [6]: 7.65% | CL/F [12]: 18.3 mL/min/kg | Tmax [14]: 0.38 h | inhibition (INH) [15]: Active | inhibition (INH) [18]: Active | Activity [19]: Not Active | MRT inf [24]: 4.89 h | k el at 24 h [25]: 3.33e-05 s⁻¹ | inhibition (INH) [27]: Active
SMILES: COc1cc2c(cc1OC)C(Cc1ccc(OC)c(OCc3ccccc3)c1)N(C)CC2 (stereo not given)
CI (ECa-109 cell line [1]): <1 | Activity (ECa-109 cell line [2]): 2.51% | inhibition at 2 µM [3]: 100% | Activity [5]: Non-Toxic | Activity (ECa-109 cell line [7]): 2.26% | viability at 5 µM (ECa-109 cell line [8]): 64.5% | IC50 at 48 h [9]: > 50000 nM | fold change (FC) (ECa-109 cell line [10]): 690.6 | Activity (ECa-109 cell line [11]): 5.69% | IC50 (ECa-109 cell line [13]): 1870 nM | Activity [16]: Non-Toxic | IC50 (ECa-109 cell line [17]): 9.9 nM | Activity (ECa-109 cell line [20]): 17.8% | IC50 at 48 h [21]: > 50000 nM | fold change (FC) (ECa-109 cell line [22]): 103.4 | Activity (ECa-109 cell line [23]): Active | Activity (ECa-109): inactive | IC50 (ECa-109 cell line [26]): > 100000 nM | Activity (ECa-109 cell line [28]): 0.42% | Activity (ECa-109 cell line [29]): 0.37%

Source: ChEMBL document CHEMBL5247655, “Simplified Derivatives of Tetrandrine as Potent and Specific P-gp Inhibitors to Reverse Multidrug Resistance in Cancer Chemotherapy” (J Med Chem, 2023)
